We go through 13 molecules from patent US11572350B1, “Benzothia(di)azepine compounds and their use as bile acid modulators” (Albireo AB, priority 2020, dated 2023).

For assay [1], the target named is T1, human IBAT (Homo sapiens, UniProt Q12908).
T1 construct: expressed in transfected cells; kept under Puromycin selection
T1 sequence (Q12908 1-348): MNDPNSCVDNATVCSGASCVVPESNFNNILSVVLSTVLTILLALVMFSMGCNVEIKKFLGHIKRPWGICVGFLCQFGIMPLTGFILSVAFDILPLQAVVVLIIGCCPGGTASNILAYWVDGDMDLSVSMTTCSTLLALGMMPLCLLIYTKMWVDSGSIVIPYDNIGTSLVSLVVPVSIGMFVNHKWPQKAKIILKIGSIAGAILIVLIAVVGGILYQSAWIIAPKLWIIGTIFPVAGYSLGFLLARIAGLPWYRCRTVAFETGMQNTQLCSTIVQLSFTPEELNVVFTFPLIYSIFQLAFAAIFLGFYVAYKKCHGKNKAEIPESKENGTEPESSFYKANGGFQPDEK
The assay is described as follows: IBAT (h/m) assay: 3H-taurocholic acid uptake in human IBAT-overexpressing cells. The assay is classed as cell-based. To be noted: 0.25 μM 3H-taurocholic acid and 5 μM cold taurocholic acid, 20 minutes, highest test concentration 10 μM, read-out: hIBAT IC50. Here is the method: IBAT (h/m) Assay Protocol
10,000 cells (Human or Mouse IBAT-overexpressing cells) were seeded in 96-wells plate (Corning CLS3809) in 200 μL MEM-alpha medium (Gibco 12571-063) supplemented with 10% FBS (Gibco 10438026) containing Puromycin (Gibco A1113803) (10 μg/mL) and incubated at 37° C. in 5% CO2 for 48 hours. After incubation, media was decanted from the wells and cells were washed two times with 300 μL of basal MEM-alpha medium (FBS-free). After decanting basal MEM-alpha medium each time, plates were tapped against paper towel to ensure maximum removal of residual media. Test inhibitor dilutions (highest test concentration being 10 μM, 3-fold serial dilution, 10 points) prepared in DMSO (Sigma D2650) were added in incubation mix (maintaining 0.2% final DMSO concentration) containing 0.25 μM 3H-taurocholic acid (ARC ART-1368) and 5 μM of cold taurocholic acid (Sigma T4009). 50 μL of incubation mix containing test inhibitors was then added to the wells (in duplicate) and the plates were incubated for 20 minutes in a CO2 incubator at 37° C. After incubation, the reaction was stopped by keeping the plates on ice water mix for 2-3 minutes and then the incubation mix was aspirated completely from the wells. The wells were washed two times with 250 μL of chilled unlabelled 1 mM taurocholic acid dissolved in HEPES (Gibco 15630080)-buffered (10 mM) HBSS (Gibco 14175079) (pH 7.4). The plates were tapped against a paper towel after every wash to ensure maximum removal of blocking buffer.
100 μL of MicroScint-20 (PerkinElmer 6013621) was added to the wells and kept overnight at room temperature before reading the plates in TopCount NXT™ Microplate Scintillation and Luminescence Counter from PerkinElmer under 3H Test protocol (set at 120 seconds reading time per well).
(§1) Preparation of Test Compound Dilutions
(§2) All test compounds were provided in powder form at room temperature. 10 mM DMSO stocks of the test compounds were prepared, aliquoted and stored at −20° C. From the 10 mM DMSO stock of the compounds, a 3-fold serial dilution in DMSO was prepared to get a total of 10 dilutions of the test compounds. 0.5 μL of this dilution in DMSO was added to 250 μL of FBS-free basal media containing 3H-taurocholic acid and cold taurocholic acid to prepare the incubation mixture.

The target in assay [2] is T2, human LBAT (Homo sapiens, UniProt Q14973).
T2 construct: expressed in transfected cells; kept under Geneticin selection
T2 sequence (Q14973 1-349): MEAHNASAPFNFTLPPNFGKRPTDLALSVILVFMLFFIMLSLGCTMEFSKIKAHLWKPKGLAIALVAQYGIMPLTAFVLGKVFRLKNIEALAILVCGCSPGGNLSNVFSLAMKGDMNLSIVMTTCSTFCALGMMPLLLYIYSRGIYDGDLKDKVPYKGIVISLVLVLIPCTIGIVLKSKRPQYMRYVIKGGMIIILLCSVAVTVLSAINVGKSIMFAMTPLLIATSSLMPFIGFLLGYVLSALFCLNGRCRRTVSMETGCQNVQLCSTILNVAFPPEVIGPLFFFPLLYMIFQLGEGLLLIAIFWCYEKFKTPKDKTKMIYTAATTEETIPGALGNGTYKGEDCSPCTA
The assay can be described thus: LBAT (h/m) assay: 3H-taurocholic acid uptake in human LBAT-overexpressing cells. Particulars: 0.3 μM 3H-taurocholic acid and 7.5 μM cold taurocholic acid, 20 minutes, read-out: hLBAT IC50. In kind it is cell-based. Here is the method:
LBAT (h/m) Assay Protocol
20,000 cells (Human or Mouse LBAT-overexpressing cells) were seeded in 96-wells plate (Corning CLS3809) in 100 μL MEM-alpha medium (Gibco 12571-063) supplemented with 10% FBS (Gibco 10438026) containing Geneticin (Gibco 10131-027) (1 mg/mL) and incubated at 37° C. in 5% CO2 for 24 hours. After incubation, media was decanted from the wells and cells were washed two times with 300 μL of basal MEM-alpha medium (FBS-free). After decanting basal MEM-alpha medium each time, plates were tapped against paper towel to ensure maximum removal of residual media. For human LBAT, incubation mix was prepared by adding test inhibitor dilutions (3-fold serial dilution in DMSO (Sigma D2650), 10 points) in MEM-alpha (without FBS) containing 0.3 μM 3H-taurocholic acid (ARC ART-1368) and 7.5 μM cold taurocholic acid (Sigma T4009) (maintaining 0.2% final DMSO concentration). For mouse LBAT, incubation mix was prepared by adding test inhibitor dilutions (3-fold serial dilution in DMSO, 10 points) in MEM-alpha (without FBS) containing 0.3 μM 3H-taurocholic acid and 25 μM cold taurocholic acid maintaining 0.2% final DMSO concentration). 50 μL of incubation mix containing test inhibitors was then added to the wells (in duplicate) and the plates were incubated for 20 minutes in a CO2 incubator at 37° C. After incubation, the reaction was stopped by keeping the plates on ice water mix for 2-3 minutes and then the incubation mix was aspirated completely from the wells. The wells were washed two times with 250 μL of chilled unlabelled 1 mM taurocholic acid dissolved in HEPES (Gibco 15630080)-buffered (10 mM) HBSS (Gibco 14175079) (pH 7.4). The plates were tapped against a paper towel after every wash to ensure maximum removal of blocking buffer.
100 μL of MicroScint-20 (PerkinElmer 6013621) was added to the wells and kept overnight at room temperature before reading the plates in TopCount NXT™ Microplate Scintillation and Luminescence Counter from PerkinElmer under 3H Test protocol (set at 120 seconds reading time per well, with normal plate orientation).
as §1, §2

The term IC50 denotes the concentration that inhibits the measured activity by half. `CCCCC1CN(c2ccccc2)c2cc(SCC)c(O/C=C(\F)C(=O)O)cc2S(=O)(=O)N1C` (racemic) [Example 24, (Z)-3-((3-butyl-7-(ethylthio)-2-methyl-1,1-dioxido-5-phenyl-2,3,4,5-tetrahydro-1,2,5-benzothiadiazepin-8-yl)oxy)-2-fluoroacrylic acid]: the concentration for half-maximal inhibition (IC50) in assay [1] turned out to be 1790 nM; in assay [2], 1.3 nM.

In the case of `CCCCC1CN(c2ccc(F)cc2)c2cc(SC)c(O/C=C(\F)C(=O)O)cc2S(=O)(=O)C1` (single isomer, unassigned) [Example 11, (Z)-3-((3-butyl-5-(4-fluorophenyl)-7-(methylthio)-1,1-dioxido-2,3,4,5-tetrahydro-1,5-benzothiazepin-8-yl)oxy)-2-fluoroacrylic acid], the IC50 in assay [1] is 519 nM; in assay [2] it was 0.9 nM.

On to `CCCCC1CN(c2ccccc2)c2cc(SCC)c(O/C=C/C(=O)O)cc2S(=O)(=O)N1` (single isomer, unassigned) [Example 5, (E)-3-((3-butyl-7-(ethylthio)-1,1-dioxido-5-phenyl-2,3,4,5-tetrahydro-1,2,5-benzothiadiazepin-8-yl)oxy)acrylic acid], for which the IC50 in assay [1] is 8810 nM; in assay [2] it was 3.4 nM.

Consider `CCCCC1CN(c2ccccc2)c2cc(SCC)c(O/C=C(\F)C(=O)O)cc2S(=O)(=O)N1C` (single isomer, unassigned) [Example 26, (Z)-3-((3-butyl-7-(ethylthio)-2-methyl-1,1-dioxido-5-phenyl-2,3,4,5-tetrahydro-1,2,5-benzothiadiazepin-8-yl)oxy)-2-fluoroacrylic acid], for which the IC50 in assay [1] turned out to be 1130 nM; in assay [2], 131 nM.

On to `CCCCC1CN(c2ccc(F)cc2)c2cc(SC)c(O/C=C(\F)C(=O)O)cc2S(=O)(=O)C1` (single isomer, unassigned) [Example 12, (Z)-3-((3-butyl-5-(4-fluorophenyl)-7-(methylthio)-1,1-dioxido-2,3,4,5-tetrahydro-1,5-benzothiazepin-8-yl)oxy)-2-fluoroacrylic acid], for which the IC50 in assay [1] stood at 1420 nM; in assay [2] it was 15 nM.

As for `CCCCC1CN(c2ccc(F)cc2)c2cc(SCC)c(O/C=C(\F)C(=O)O)cc2S(=O)(=O)C1` (single isomer, unassigned) [Example 17, (Z)-3-((3-butyl-7-(ethylthio)-5-(4-fluorophenyl)-1,1-dioxido-2,3,4,5-tetrahydro-1,5-benzothiazepin-8-yl)oxy)-2-fluoroacrylic acid], the IC50 is greater than 3330 nM in assay [1] and 5.5 nM in assay [2].

Regarding `CCCCC1CN(c2ccc(F)cc2)c2cc(SC)c(O/C=C(\F)C(=O)O)cc2S(=O)(=O)N1C` (single isomer, unassigned) [Example 21, (Z)-3-((3-butyl-5-(4-fluorophenyl)-2-methyl-7-(methylthio)-1,1-dioxido-2,3,4,5-tetrahydro-1,2,5-benzothiadiazepin-8-yl)oxy)-2-fluoroacrylic acid], the IC50 in assay [1] is greater than 3330 nM; in assay [2] it was 10.1 nM.

On to `CCCCC1CN(c2ccc(F)cc2)c2cc(SC)c(O/C=C/C(=O)O)cc2S(=O)(=O)N1` (single isomer, unassigned) [Example 2, (E)-3-((3-butyl-5-(4-fluorophenyl)-7-(methylthio)-1,1-dioxido-2,3,4,5-tetrahydro-1,2,5-benzothiadiazepin-8-yl)oxy)acrylic acid], for which the IC50 is greater than 10000 nM in assay [1] and 278 nM in assay [2].

For the molecule `CCCCC1CN(c2ccccc2)c2cc(SCC)c(O/C=C(\F)C(=O)O)cc2S(=O)(=O)C1` (single isomer, unassigned) [Example 14, (Z)-3-((3-butyl-7-(ethylthio)-1,1-dioxido-5-phenyl-2,3,4,5-tetrahydro-1,5-benzothiazepin-8-yl)oxy)-2-fluoroacrylic acid], the IC50 in assay [1] was greater than 10000 nM; in assay [2], 21 nM.

Take `CCCCC1CN(c2ccc(F)cc2)c2cc(SCC)c(O/C=C(\F)C(=O)O)cc2S(=O)(=O)N1C` (single isomer, unassigned) [Example 23, (Z)-3-((3-butyl-7-(ethylthio)-5-(4-fluorophenyl)-2-methyl-1,1-dioxido-2,3,4,5-tetrahydro-1,2,5-benzothiadiazepin-8-yl)oxy)-2-fluoroacrylic acid]: the IC50 in assay [1] is greater than 3330 nM; in assay [2] it was 70 nM.

Turning to `CCCCC1CN(c2ccccc2)c2cc(SCC)c(O/C=C/C(=O)O)cc2S(=O)(=O)N1` (racemic) [Example 4, (E)-3-((3-Butyl-7-(ethylthio)-1,1-dioxido-5-phenyl-2,3,4,5-tetrahydro-1,2,5-benzothiadiazepin-8-yl)oxy)acrylic acid], the figures for the IC50 in assay [1] and in assay [2] were greater than 10000 nM and 3.4 nM, respectively.

With `CCCCC1CN(c2ccc(F)cc2)c2cc(SCC)c(O/C=C/C(=O)O)cc2S(=O)(=O)C1` (single isomer, unassigned) [Example 8, (E)-3-((3-butyl-7-(ethylthio)-5-(4-fluorophenyl)-1,1-dioxido-2,3,4,5-tetrahydro-1,5-benzothiazepin-8-yl)oxy)acrylic acid], the results for the IC50 in assay [1] and in assay [2] were greater than 10000 nM and greater than 333 nM, respectively.

Take `CCCCC1CN(c2ccc(F)cc2)c2cc(SC)c(O/C=C(\F)C(=O)O)cc2S(=O)(=O)N1` (racemic) [Example 27, (Z)-3-((3-butyl-5-(4-fluorophenyl)-7-(methylthio)-1,1-dioxido-2,3,4,5-tetrahydro-1,2,5-benzothiadiazepin-8-yl)oxy)-2-fluoroacrylic acid]: the IC50 amounted to 481 nM in assay [1] and 13 nM in assay [2].
